Measured values: patent US20110245292A1, “2-HYDROXY-ETHANESULFONATE SALT” (AstraZeneca AB, priority 2008, published 2011)
Counter-ions that a name gives are not always drawn.

Assay: Gravimetric Vapour Sorption (GVS)
Type: physicochemical
Experimental: Gravimetric Vapour Sorption (GVS) profiles were measured using a Surface Measurements Systems Dynamic Vapour Sorption DVS-1 or a DVS Advantage instrument. The solid sample ca. 1-5 mg was placed into a glass vessel and the weight of the sample was recorded during a dual cycle step method (40 to 90 to 0 to 90 to 0% relative humidity (RH), in steps of 10% RH).

Compound	GVS mass increase, 1st cycle (1st cycle, sample of preparation 1 (step a))	GVS mass increase, 2nd cycle (2nd cycle, sample of preparation 1 (step a)) [%]	GVS weight increase at 80% RH (80% RH (±0.3%), material of preparation 2) [%]	GVS mass increase at 80% RH (80% RH, material of preparation 1)
O[C@](c1ccccc1)(c1cc(C[N+]23CCC(CC2)[C@@H](Oc2cccc(F)c2)C3)on1)C1CCCCC1.[Cl-] [(R)-1-[3-((R)-Cyclohexyl-hydroxy-phenyl-methyl)-isoxazol-5-ylmethyl]-3-(3-fluoro-phenoxy)-1-azonia-bicyclo[2.2.2]octane chloride]	approximately 5%	~6.5		
O[C@](c1ccccc1)(c1cc(C[N+]23CCC(CC2)[C@@H](Oc2cccc(F)c2)C3)on1)C1CCCCC1 [Salt Form A, (R)-1-[3-((R)-cyclohexyl-hydroxy-phenyl-methyl)-isoxazol-5-ylmethyl]-3-(3-fluoro-phenoxy)-1-azonia-bicyclo[2.2.2]octane 2-hydroxy-ethanesulfonate]			0.15	no mass increase
